Measurements as given in patent US12151999B2, “Small molecule compounds having naphthylamine structure and application thereof” (Hangzhou PhecdaMed Co., Ltd., priority 2021, dated 2024).

Key:
[1] = Rat pharmacokinetics (PK) test; type: in vivo, SD rats; settings: for bioavailability: read-out: Bioavailability F; for half-life: read-out: Half-life t 1/2 (converted); for Cmax: read-out: Peak blood concentration C max
Description: (§1) Take experimental mice and apply an appropriate amount of the test compound to them according to the dosage and administration route shown in the figure. Three experimental mice were selected for three parallel experiments for each compound and each administration method. Numbers 101, 102 and 103 were in the same group, 201, 202 and 203 were in one group, and 301, 302 and 303 were in one group.
(§2) At the corresponding time point, take 10 μL of rat plasma sample into a centrifuge tube, add 100 μL of methanol:acetonitrile (1:1, v/v), perform […] for 1 min, centrifuged (14000 rpm) for 5 min, and take 50 μL of the supernatant, mixed with water in equal volumes, mixed uniformly by […] and then analyzed.
(§3) Note: The mice used in the PK experiment are ICR mice of SPF, purchased from Sino-British SIPPR Lab Animal Ltd, Shanghai, China. The rats used in the PK experiments were SD rats of SPF, purchased from Sino-British SIPPR Lab Animal Ltd, Shanghai, China.

[2] = Mouse pharmacokinetics (PK) test; type: in vivo, ICR mice; settings: for AUC(0-inf) / bioavailability / half-life / Cmax / clearance / Vd: ICR, plasma; for bioavailability: read-out: Bioavailability F; for half-life: read-out: Half-life t 1/2 (converted); for Cmax: read-out: Peak blood concentration C max; for clearance: read-out: Eliminate Cl; for Vd: read-out: Steady state apparent volume of distribution Vss
Description: as §1, §2, §3

[3] = In vitro liver microsome stability test; type: in vitro ADME; settings: in vitro mouse or human liver microsomes
Description: Ketanserin was selected as the reference compound. The specific method is as follows:
Prepare 0.1MK3PO4 (pH 7.4) buffer and 3×NADPH stock solution (6 mM, 5 mg/mL), and preheat in a 37° C. water bath; configure the test compound and control compound spiking solution: 5 μL compound stock solution ([…]) was added to 95 μL acetonitrile; Configuration of 1.5 μM spiking solution in microsomes (0.75 mg/mL): 1.5 μL of spiking solution and 18.75 μL of liver microparticles solution (20 mg/mL) were added to 479.75 μL of K3PO4 buffer; add 30 μL spiking solution in microsomes to the multi-well plate, and incubated at 37° C. for 5 minutes; add 15 μL NADPH stock solution to each well to start the reaction, and timing; the reaction was terminated by adding 150 μL of acetonitrile solution containing IS at 0 min, 5 min, 15 min, 30 min and 45 min, respectively; shake for 10 min and then centrifuge at 6000 rpm for 15 min; take 80 μL of the supernatant from each well for LC/MS detection and calculate T1/2.
Note: The mouse and human liver microsomes used in the experiments were purchased from Xenotech.

[4] = In vitro plasma stability test; type: in vitro ADME; settings: 37° C.
Description: Procaine was selected as the reference compound. The specific method is as follows:
Incubated in a water bath at 37° C. for 0, 5, 15 and 30 minutes and 1, 2, 4, 6, 10, 24 and 48 hours. Take 200 μL and add 3 times the volume of chromatography grade acetonitrile to precipitate the protein. Vortex shaking for 5 minutes, centrifuge, take 200 μL of the supernatant, HPLC injection and analysis. The liquid phase conditions are the same as before.

[5] = test system: HEK293Tmtkeima cells; experiment: Functional test of mitophagy inducer (mtKeima imaging, with or without CCCP-induced mitochondrial damage); type: cell-based, Human; settings: for Ability to selectively induce autophagy in damaged mitochondria (FIG. 2): 5 uM or 10 uM CCCP versus no CCCP treatment; for The ability of selection to induce autophagy in damaged mitochondria: HEK293Tmtkeima cells, 5 uM or 10 uM CCCP to induce mitochondrial damage, number of cells in which damaged mitophagy occurs/number of all cells
Description: Group 1: Human embryonic kidney transformed cells HEK293Tmtkeima cells were treated with 0 μM, 1.25 μM, 2.5 μM, 5 μM and 10 μM CCCP respectively, and seeded in a 96-well black ELISA PLATE at 1.5*10^5 cells/ml, 100 μL per well. Compound I-2 was added after 25 hours, and 3 replicates were set. At 37° C., under 5% CO2 incubation conditions, photographs were taken every few hours with biotek cytation 5 for a total of 20 hours, with the bright field as the focusing channel, and 9 images were taken per hole, and the images were processed using the instrument software.
Group 2: Human embryonic kidney transformed cells HEK293Tmtkeima cells were seeded in a 96-well black ELISA PLATE at […], 100 μL per well; compounds I-1˜I-44 and UMI-77 were added after 25 hours, set up 3 replicates; under 37° C., 5% CO2 culture conditions, use biotek every few hours Cytation 5 was used to take photos, a total of 20 hours of shooting. In another group of cells under the same conditions, human embryonic kidney-transformed cells HEK293Tmtkeima cells were seeded in a 96-well black enzyme plate at 1.5*10^5 cells/ml, 100 μl per well; after 24 hours, 5 uM or 10 uM CCCP (Carbonyl cyanide) was first added 3-chlorophenylhydrazone) to induce mitochondrial damage, then add I-1˜I-44, UMI-77 1 hour later, set up 3 repetitions; under 37° C., 5% CO2 culture conditions, pictures were taken every few hours with biotek cytation 5, photographs were taken for 20 hours. Another group of human embryonic kidney transformed cells HEK293Tmtkeima cells was seeded at 1.5*10^5 cells/ml in 96-well black ELISA PLATE at 100 μl per well under the same conditions, 24 hours later 5 uM or 10 uM CCCP (Carbonyl cyanide 3-chlorophenylhydrazone) was first added to induce mitochondrial damage, after 1 hour then add I-1 to I-44, UMI-77 and set up 3 replicates. At 37° C., under 5% CO2 incubation conditions, pictures were taken every few hours with biotek cytation 5, photographs were taken for 20 hours, with the bright field as the focusing channel for both groups, and 9 images were taken per hole, and the images were processed using the instrument software.

[6] = SD, plasma, IP intraperitoneal injection (3 mg/kg)
[7] = SD, plasma, IV intravenous injection (1 mg/kg)
[8] = SD, plasma, PO oral gavage (10 mg/kg)
[9] = IP intraperitoneal injection, 3 mg/kg
[10] = IV intravenous injection, 1 mg/kg

Row | PK properties in the mouse PK experiment (in words) [2] | AUC(0-inf) [2, 10] [ng·h/mL] | clearance [2, 10] [mL/min/kg] | Cmax [2, 10] [ng/mL] | Vd [2, 10] [L/kg] | AUC(0-inf) ([2]; PO oral gavage, 10 mg/kg) [ng·h/mL] | bioavailability ([2]; PO oral gavage, 10 mg/kg) [%] | Cmax ([2]; PO oral gavage, 10 mg/kg) [ng/mL] | Compound | half-life [2, 10] [h] | half-life ([2]; PO oral gavage, 10 mg/kg) [h] | Liver microsomal stability (elimination half-life T 1/2, FIG. 3) [3] | Plasma stability (half-life, FIG. 4) [4] | Ability to selectively induce autophagy in damaged mitochondria (FIG. 2) [5] | The ability of selection to induce autophagy in damaged mitochondria [5] | also measured
1 | good PK properties | 429 | 39.3 | 947 | 1.39 | 1050 | 24.1 | 495 | CN(c1cc([S+]([O-])CC(=O)O)c(O)c2ccccc12)S(=O)(=O)c1ccc(Br)cc1 (centres unmarked) [Compound I-2] | 0.98 | 1.37 | superior liver microsomal stability | superior plasma stability | more likely to induce autophagy in damaged mitochondria | ++ (moderate ability to selectively induce autophagy in damaged mitochondria (number of cells in which damaged mitophagy occurs/number of all cells in the range of 0.2 to 0.3)) | Induction of mitophagy in cells with undamaged mitochondria (FIG. 1) ([5]; cells treated with 0 μM CCCP): unable to induce autophagy in non-damaged mitochondria; Induction of mitophagy in cells with mitochondrial damage (FIG. 1) ([5]; cells with CCCP (10 μM) versus without CCCP): selectively induces autophagy in damaged mitochondria
2 |  |  |  |  |  |  |  |  | Cn1cc(S(=O)(=O)Nc2cc([S+]([O-])CC(=O)CO)c(O)c3ccccc23)cn1 (centres unmarked) [Compound I-36] |  |  |  |  |  | ++ (moderate ability to selectively induce autophagy in damaged mitochondria (number of cells in which damaged mitophagy occurs/number of all cells in the range of 0.2 to 0.3)) | 
3 |  |  |  |  |  |  |  |  | Cc1noc(C)c1S(=O)(=O)Nc1cc([S+]([O-])CC(=O)O)c(O)c2ccccc12 (centres unmarked) [Compound I-37] |  |  |  |  |  | ++ (moderate ability to selectively induce autophagy in damaged mitochondria (number of cells in which damaged mitophagy occurs/number of all cells in the range of 0.2 to 0.3)) | 
4 |  |  |  |  |  |  |  |  | O=C(O)CS(=O)(=O)c1cc(NS(=O)(=O)c2ccc(Br)cc2)c2ccccc2c1O [Compound I-42] |  |  |  |  |  | + (weak ability to selectively induce autophagy in damaged mitochondria (number of cells in which damaged mitophagy occurs/number of all cells in the range of 0.1 to 0.2)) | 
5 | rapidly cleared | 140 | 131 | 314 | 18.4 | 162 | 8.64 | 102 | O=C(O)CSc1cc(NS(=O)(=O)c2ccc(Br)cc2)c2ccccc2c1O [UMI-77, reference compound] |  |  | unstable in the liver microsomal environment and will be rapidly eliminated | unstable in the plasma environment and will be rapidly eliminated | unable to selectively induce autophagy in damaged mitochondria |  | 

Row | Compound | PK properties in the mouse PK experiment (in words) [2] | AUC(0-inf) [2, 10] [ng·h/mL] | clearance [2, 10] [mL/min/kg] | Cmax [2, 10] [ng/mL] | Vd [2, 10] [L/kg] | AUC(0-inf) ([2]; PO oral gavage, 10 mg/kg) [ng·h/mL] | bioavailability ([2]; PO oral gavage, 10 mg/kg) [%] | Cmax ([2]; PO oral gavage, 10 mg/kg) [ng/mL] | half-life [2, 10] [h] | half-life ([2]; PO oral gavage, 10 mg/kg) [h] | Liver microsomal stability (elimination half-life T 1/2, FIG. 3) [3] | Plasma stability (half-life, FIG. 4) [4] | Ability to selectively induce autophagy in damaged mitochondria (FIG. 2) [5] | The ability of selection to induce autophagy in damaged mitochondria [5] | also measured
6 | O=C(O)C[S+]([O-])c1cc(NS(=O)(=O)c2ccc(Br)cc2)c2ccccc2c1O (centres unmarked) [Compound I-1] | good PK properties | 714 | 24.9 | 832 | 2.3 | 3800 | 60.4 | 1350 | 1.25 | 1.96 | superior liver microsomal stability | superior plasma stability | more likely to induce autophagy in damaged mitochondria | +++ (strong ability to selectively induce autophagy in damaged mitochondria (number of cells in which damaged mitophagy occurs/number of all cells >0.30)) | PK properties in the rat PK experiment (in words) [1]: good PK properties; AUC(0-inf) [1, 6]: 18300 ng·h/mL; bioavailability [1, 6]: 165%; half-life [1, 6]: 3.34 h; Cmax [1, 6]: 5440 ng/mL; AUC(0-inf) [1, 7]: 3720 ng·h/mL; clearance ([1]; SD, plasma, IV intravenous injection (1 mg/kg), read-out: Eliminate Cl): 4.91 mL/min/kg; half-life [1, 7]: 1.93 h; Cmax [1, 7]: 1900 ng/mL; Vd ([1]; SD, plasma, IV intravenous injection (1 mg/kg), read-out: Steady state apparent volume of distribution V ss): 0.63 L/kg; AUC(0-inf) [1, 8]: 6070 ng·h/mL; bioavailability [1, 8]: 16.3%; half-life [1, 8]: 0.96 h; Cmax [1, 8]: 1550 ng/mL; AUC(0-inf) [2, 9]: 4420 ng·h/mL; bioavailability [2, 9]: 247%; half-life [2, 9]: 0.79 h; Cmax [2, 9]: 3740 ng/mL
